# ± gives the expanded uncertainty stated by the source.
# What was measured:
# [1] = for molar volume: 101.33 kPa, Pycnometric method; for Normal melting temperature: DTA
# [2] = Molar enthalpy of transition or fusion; conditions: Crystal; DSC
SMILES,"molar volume ([1]; 323.15 K, Crystal) [m3/mol]","molar volume ([1]; 323.15 K, Liquid) [m3/mol]",Normal melting temperature ([1]; Crystal) [°C],Molar enthalpy of transition or fusion [2] [kcal/mol],"molar volume ([1]; 338.15 K, Crystal) [m3/mol]","molar volume ([1]; 338.15 K, Liquid) [m3/mol]"
COC1=C(OC)C(=O)C(C/C=C(\C)CC/C=C(\C)CC/C=C(\C)CC/C=C(\C)CC/C=C(\C)CC/C=C(\C)CC/C=C(\C)CC/C=C(\C)CC/C=C(\C)CCC=C(C)C)=C(C)C1=O [Coenzyme Q10],0.0009 ± 1e-05,0.00095 ± 1e-05,49.4 ± 0.5,19.6 ± 0.478,,
"CCCCCCCCCCCCCCCC(=O)OCC(COC(=O)CCCCCCCCCCCCCCC)OC(=O)CCCCCCCCCCCCCCC [1,2,3-propanetriyl tri(hexadecanoate)]",,,64.2 ± 0.5,28.9 ± 0.478,0.00087 ± 1e-05,0.00093 ± 1e-05
